Numbered stars: 1 amine (or outer) side, 2 acyl side, 3 side chain; on linkers, the order of the positions; unused ones are H or OH. Square brackets hold non-standard residues; d marks the D form. Peptide text beside a SMILES is read from it. * marks the point of attachment. ξ: configuration not given here. X1 = O=C([C@@H](N[*:1])c1cnc[nH]1)[*:2]; Ile(3ξ) = CCC(C)[C@H](N)C(=O)O; Lauroyl = CCCCCCCCCCCC(=O)*
Biological target: WHN-N protein (SARS-CoV-2 nucleocapsid N protein) (Severe acute respiratory syndrome coronavirus 2, UniProt P0DTC9)
Type: binding

Row | Compound | specificity of the peptide sequence
1 | CCCCCCCCCCCC(=O)N[C@H](C(=O)N[C@H](C(=O)N[C@@H](CO)C(=O)N[C@@H](CC(N)=O)C(=O)N[C@@H](Cc1c[nH]cn1)C(=O)N[C@@H](CO)C(=O)N[C@@H](Cc1c[nH]cn1)C(=O)N[C@@H](Cc1c[nH]cn1)C(=O)N[C@@H](Cc1c[nH]cn1)C(=O)N[C@@H](CC(=O)O)C(=O)N[C@H](C(=O)N[C@@H](CC(C)C)C(N)=O)C(C)CC)C(C)CC)c1cnc[nH]1 (stereo partly drawn) [11-KOD1, 11-Mrcpt-HISNHSHHHDIL-NH2] (Lauroyl-[X1][Ile(3ξ)]SNHSHHHD[Ile(3ξ)]L-NH2) | specific for the WHN-N protein
2 | CCCCCCCCCCCC(=O)N[C@H](C(=O)N1CCC[C@H]1C(=O)N[C@H](C(=O)N[C@@H](Cc1ccc(O)cc1)C(=O)N[C@@H](Cc1c[nH]cn1)C(=O)N[C@@H](CCCCN)C(=O)N[C@@H](CC(C)C)C(N)=O)C(C)CC)[C@@H](C)O (some centres unmarked) [11-KOD7, 11-Mrcpt-TPIYHKL-NH2] (Lauroyl-TP[Ile(3ξ)]YHKL-NH2) | specific for SARS-CoV-2 virus

— patent US20220365085A1, “B[…], THE USE OF B[…], SENSORS […] WITH THE SAID B[…] AND THE DETECTION METHOD OF SARS-COV-2 VIRUS” (SENSDX SPÓLKA AKCYJNA, priority 2019, published 2022)
